Tests used:
vasopressin V1a receptor = target: T1, vasopressin V1a receptor (Homo sapiens, UniProt P37288); experiment: Inhibition of phosphatidylinositol turnover; assay type: cell-based; settings: hV1a cells
T1 construct: host or cells: CHO cells (hV1a cell line), whole adherent cells
Excerpt: Inhibition of phosphatidylinositol turnover. The physiological effects of vasopressin are mediated through specific G-protein coupled receptors. The vasopressin V1a receptor is coupled to the Gq/G11 family of G proteins and mediates phosphatidylinositol turnover. The agonist or antagonist character of the compounds of the invention may be determined by their ability to inhibit vasopressin-mediated turnover of phosphatidylinositol by the procedure described in the following paragraphs.
Cell culture and labeling of cells. Three days prior to the assay, near-confluent cultures of hV1a cells were dissociated and seeded in 6-well tissue culture plates, about 100 wells being seeded from each 75 cm^2 flask (equivalent to 12:1 split ratio).
Incubations. All assays were in triplicate except for basal and 10 nM AVP (both n=6). AVP ((arginine vasopressin), Peninsula Labs, Belmont, Calif., USA (#8103)) was dissolved in 0.1N acetic acid. Test agents were dissolved in DMSO and diluted in DMSO to 200 times the final test concentration. […] The order of incubations was randomized. Incubations were initiated by removing the prelabeling medium, washing the monolayer once with 1 mL of 0.9% NaCl, and transferring the contents of the assay tubes to corresponding wells. The plates were incubated for 1 hour at 37° C. Incubations were terminated by removing the incubation medium and adding 500 μL of ice cold 5% (w/v) trichloroacetic acid and allowing the wells to stand for 15 min.
Measurement of [^3H]inositol phosphates. BioRad Poly-Prep Econo-Columns were packed with 0.3 mL of AG 1 X-8 100-200 formate form resin. Resin was mixed 1:1 with water and 0.6 mL added to each column. Columns were then washed with 10 mL water. Scintillation vials (20 mL) were placed under each column. For each well, the contents were transferred to a minicolumn, after which the well was washed with 0.5 mL distilled water, which was also added to the minicolumn. The columns were then washed twice with 5 mL of 5 mM myo-inositol to elute free inositol. Aliquots (1 mL) were transferred to 20 mL scintillation vials and 10 mL of Beckman Ready Protein Plus added. After the myo-inositol wash was complete, empty scintillation vials were placed under the columns, and [^3H]inositol phosphates were eluted with three additions of 1 mL 0.5 M ammonium formate containing 0.1 N formic acid. Elution conditions were optimized to recover inositol mono-, bis-, and trisphosphates, without eluting the more metabolically inert tetrakis-, pentakis-, and hexakis-phosphates. To each sample was added 10 mL of a high salt capacity scintillation fluid such as Tru-Count High Salt Capacity or Packard Hionic-Fluor. Inositol lipids were measured by adding 1 mL of 2% sodium dodecyl sulfate (SDS) to each well, allowing the wells to stand for at least 30 min., and transferring the solution to 20 mL scintillation vials, to which 10 mL Beckman Ready Protein Plus scintillation fluid was then added. Samples were counted in a Beckman LS 3801 liquid scintillation counter for 10 min. Total inositol incorporation for each well was calculated as the sum of free inositol, inositol phosphates, and inositol lipids.
Data analysis: concentration-inhibition experiments. Concentration-response curves for AVP and concentration-inhibition curves for test agents versus 10 nM AVP were analyzed by nonlinear least-squares curve-fitting to a 4-parameter logistic function. Parameters for basal and maximal inositol phosphates, EC50 or IC50, and Hill coefficient were varied to achieve the best fit. The curve-fitting was weighted under the assumption that the standard deviation was proportional to dpm of radioactivity. Full concentration-response curves for AVP were run in each experiment, and IC50 values were converted to Ki values by application of the Cheng-Prusoff equation, based on the EC50 for AVP in the same experiment. Inositol phosphates were expressed as dpm per 10^6 dpm of total inositol incorporation.

[1] = system: AVP-induced rise in blood pressure; experiment: Blood pressure pharmacology rats; assay type: in vivo
Excerpt: Blood pressure pharmacology rats. […] Prior to menses, blood vessels in the uterine wall become engorged with blood. Vasopressin, acting through V1a receptors, causes constriction of both uterine and vascular smooth muscle contributing to the discomfort and pain of primary dysmenorrhea. Vasopressin is one of the endogenous factors that maintains vascular tone. Blocking the V1a receptors localized to smooth muscle may ameliorate the symptoms of primary dysmenorrhea. Elevated concentrations of vasopressin, acting through V1a receptors causes constriction of both uterine and vascular smooth muscle contributing to the discomfort and pain of primary dysmenorrhea. There are no animal models for evaluating receptor antagonists on dysmenorrhea. […]
Male rats were divided into five groups, and each group was tested with placebo, or one of four doses of one or more of the compounds described herein, such as with Example 225 at 0.16, 0.4, 1.0, and 2.5 mg/kg. Rats were treated orally with the compound and effects on blood pressure were measured 90-150 min later as follows. Under isoflurane anesthesia blood pressure was recorded through a cannula in the femoral artery. To increase systemic blood pressure AVP was administered (25 ng/kg) through a cannula in the femoral vein; the change in mean blood pressure was recorded two minutes following injection of AVP.

[2] = system: panel of 63 other receptors; experiment: Comparative binding to other receptors showing selectivity (NOVASCREEN); settings: 100 nM
Excerpt: Comparative binding to other receptors showing selectivity.

V1a = V1a (Homo sapiens, UniProt P37288); experiment: Human vasopression V1a receptor binding assay; set-up: host or cells: CHO cells (hV1a cell line), whole adherent cells
Chain of V1a (P37288 whole entry): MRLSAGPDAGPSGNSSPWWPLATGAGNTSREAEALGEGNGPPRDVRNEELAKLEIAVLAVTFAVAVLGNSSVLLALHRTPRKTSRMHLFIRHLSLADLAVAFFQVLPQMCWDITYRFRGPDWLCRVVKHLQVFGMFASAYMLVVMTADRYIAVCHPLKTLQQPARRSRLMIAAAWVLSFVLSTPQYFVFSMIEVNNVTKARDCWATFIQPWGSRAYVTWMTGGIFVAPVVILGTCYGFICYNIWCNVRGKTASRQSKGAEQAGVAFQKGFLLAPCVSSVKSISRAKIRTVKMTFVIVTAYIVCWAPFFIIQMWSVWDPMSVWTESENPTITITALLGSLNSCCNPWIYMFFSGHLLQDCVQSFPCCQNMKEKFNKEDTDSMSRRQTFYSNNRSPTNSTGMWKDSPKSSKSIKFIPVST
Procedure, shortened: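 Whole CHO cells stably expressing human V1a receptor competed 1 nM 3H-AVP against 10-fold serial compound dilutions (DMSO) in pH 7.0 Hepes/BSA/DMEM buffer, 45 min at 37° C.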

T1 sequence (P37288 whole entry): as above

CN(Cc1cccc(C(F)(F)F)c1)C(=O)[C@@H](CC(=O)N1CCC(N2CCCCC2)CC1)N1C(=O)[C@@H](N2C(=O)OC[C@@H]2c2ccccc2)[C@H]1/C=C/c1ccccc1 [Example 225, 2(R)-[[4-(Piperidinyl)piperidinyl]carbonylmethyl]-2-[3(S)-(4(S)-phenyloxazolidin-2-on-3-yl)-4(R)-(2-styryl)azetidin-2-on-1-yl]acetic acid N-methyl-N-(3-trifluoromethylbenzyl)amide]
Ki (vasopressin V1a receptor; from IC50 by Cheng-Prusoff equation, read-out: Ki, suppression of the action of AVP): 0.05 nM
suppression of the action of AVP (vasopressin V1a receptor; inositol phosphates): dose-dependent suppression of the action of AVP
IC50 (vasopressin V1a receptor; versus 10 nM AVP, inositol phosphates, read-out: IC50, suppression of the action of AVP): 2.68 nM
inhibition of the AVP-induced rise in blood pressure ([1]; male rats, oral 0.16, 0.4, 1.0, 2.5 mg/kg, 90-150 min before AVP 25 ng/kg): dose-dependent inhibition of the AVP-induced rise in blood pressure
reduction in blood pressure as compared to vehicle and the two lower doses ([1]; rats, oral 1 and 2.5 mg/kg): significant (p<0.01) reduction in blood pressure
selective binding against panel of 63 other receptors [2]: bound only to the V1a vasopressin receptor
IC50 (V1a; hV1a cell line (CHO), 1 nM 3H-AVP, Table 17, read-out: V1a Binding Affinity (IC50 (nM))): 1.08 nM
binding curve against [3H]-AVP (V1a; hV1a cell line, 10 fold dilutions of test compound): dose-dependent competitive binding curve
